Results as given in PMC8311463, “Cyclotides Isolated From Violet Plants of Cameroon Are Inhibitors of Human Prolyl Oligopeptidase” (Frontiers in Pharmacology, 2021).
Bridge positions count the residues as written; N and C are the ends. Peptide text beside a SMILES is read from it. * marks the point of attachment. AMC = Cc1cc(=O)oc2cc(N*)ccc12; Cbz = O=C(OCc1ccccc1)*

What was measured:
human POP [1] = biological target: T1, human POP (Homo sapiens, UniProt P48147); experiment: POP inhibition assay, Z-Gly-Pro-amino-coumarin substrate; type: biochemical
T1 construct: the full-length untagged protein was obtained after site-specific cleavage; GST (N, cleaved yes); made in house; host or cells: Escherichia coli BL21 (D3 [sic] strain)
T1 sequence (P48147 1-710): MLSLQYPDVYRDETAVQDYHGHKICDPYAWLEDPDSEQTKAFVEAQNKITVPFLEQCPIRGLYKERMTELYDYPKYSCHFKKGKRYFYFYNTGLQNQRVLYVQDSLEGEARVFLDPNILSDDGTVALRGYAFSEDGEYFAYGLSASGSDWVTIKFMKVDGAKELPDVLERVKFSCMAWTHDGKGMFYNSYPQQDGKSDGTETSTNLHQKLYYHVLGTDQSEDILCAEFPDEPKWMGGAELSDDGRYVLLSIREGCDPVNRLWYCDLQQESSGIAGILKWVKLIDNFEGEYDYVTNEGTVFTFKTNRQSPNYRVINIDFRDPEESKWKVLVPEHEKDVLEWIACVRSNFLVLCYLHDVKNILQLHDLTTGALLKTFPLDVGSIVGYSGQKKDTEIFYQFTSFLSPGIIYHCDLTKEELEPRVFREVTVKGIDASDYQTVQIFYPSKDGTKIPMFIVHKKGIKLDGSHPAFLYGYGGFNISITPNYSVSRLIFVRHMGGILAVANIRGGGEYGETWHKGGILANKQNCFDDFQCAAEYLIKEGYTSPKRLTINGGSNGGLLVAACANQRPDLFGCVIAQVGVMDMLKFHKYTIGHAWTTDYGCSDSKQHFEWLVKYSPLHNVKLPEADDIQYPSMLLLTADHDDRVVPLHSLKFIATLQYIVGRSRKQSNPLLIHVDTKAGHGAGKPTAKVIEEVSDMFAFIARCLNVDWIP
Method: The POP inhibition assays were carried out similarly as recently described ([Hellinger et al., 2015a]; [Retzl et al., 2020]) using a bacterial expressed POP enzyme. […] For enzyme inhibition assays human POP (50 ng/well) was incubated in assay buffer (20 mM Hepes pH 7.2, 150 mM NaCl, 1 mM EDTA, 0.5 mM DTT) together with substrate Z-Gly-Pro-amino-coumarin (final concentration 45 µM) at 37°C for 60 min. […] All experiments were performed in 96-microtiter black bottom plates. Concentration-response inhibition assays were performed with [S] = K m, which is considered a suitable condition for evaluating samples of unknown inhibition mode (e.g. competitive, noncompetitive or uncompetitive reversible inhibition). The protease activity was quantified as fluorescence from the proteolytically cleaved amino-coumarin fluorophore with excitation 380 nm and emission 420 nm on a Biotek Synergy H4 plate reader. The fluorogenic substrate provide elevated fluorescence by the delocalization of electrons after the amide bond cleavage and release of the 7 amino coumarin moiety. All samples for protease inhibition assays were prepared in ddH2O. Concentration-dependent inhibition studies were performed with the peptide enriched extracts (2–1,000 μg/ml) or isolated peptides (0.1–60 µM). For bioassay-guided isolation HPLC fractions were assayed for POP inhibition with three concentrations (4, 20 and 100 μg/ml). Kinetic measurements were carried out to obtain initial velocities in the presence of sample (vi) or enzyme alone (vo) ([Arnison et al., 2013]). The percent remaining POP activity was calculated as I = (vi/vo)*100. A substrate background was used for correction of all measurements. KYP-2047, a specific POP inhibitor, was used as positive control in the assays. […] Four parameter non-linear regression curve fits were obtained using GraphPad Prism v5.0 fitting algorithms with equation Y=Bottom + (Top-Bottom)/(1 + 10^((LogIC50-X)*Hill Slope)) in which X is the log dose and Y the measured response.

POP [2] = conditions: clinical phase 1 and 2; ref López et al., 2013; cited from earlier work
Source text: Ethnomedicinal studies have shown beneficial effects of cyclotide expressing plants in few disease conditions with relationship to POP. For instance, African traditional medicine describes the therapeutic application of Rinorea dentata (P. Beauv.) Kuntze from the Violaceae toward neurodegenerative diseases ([Sonibare and Ayoola, 2015]). […] To make use of these beneficial effects it will be necessary to further investigate P ...

human POP [3] = biological target: T1, human POP; experiment: POP enzyme kinetics (Michaelis-Menten) with Z-Gly-Pro-amino-coumarin; type: biochemical; conditions: substrate Z-Gly-Pro-amino-coumarin, optimized assay buffer 20 mM Hepes pH 7.2, 150 mM NaCl, 1 mM EDTA, 0.5 mM DTT
Method: The POP inhibition assays were carried out similarly as recently described ([Hellinger et al., 2015a]; [Retzl et al., 2020]) using a bacterial expressed POP enzyme. Human POP cDNA (accession NM:002726.4) was inserted into a pGEX-6P1 expression vector using the EcoRI and XhoI sites (Genescript, Leiden, Netherlands) and expressed in Escherichia coli (BL21 D3 strain). Protein expression was induced by addition of 0.3–0.5 mM isopropyl-β-D-thiogalactopyranoside (ProteinArk, Rotterdam, Netherlands) at an optical density (OD600) between 0.6 and 0.8 to the bacterial culture and incubated at 25°C under constant shaking. The protein was harvested at an OD600 between 1.4 and 1.5. POP was purified via GST-affinity capture beads. […] The protein concentration was determined with bicinchoninic acid assay (ThermoFisher). […] The protease activity was quantified as fluorescence from the proteolytically cleaved amino-coumarin fluorophore with excitation 380 nm and emission 420 nm on a Biotek Synergy H4 plate reader. The fluorogenic substrate provide elevated fluorescence by the delocalization of electrons after the amide bond cleavage and release of the 7 amino coumarin moiety. […] The percent remaining POP activity was calculated as I = (vi/vo)*100. […]

[4] = Precipitation of the substrate in POP assay; type: physicochemical; conditions: optimized POP assay conditions, tested between 0.766 µM and 300 µM
Method: Supplementary Figure S3. POP purification and optimization of the assay system.Human POP wa s expressed in E. coliand purified as functional protease. The purification steps were analyzed using a Coomassie stained protein gel. Purifi ed POP enzyme is shown in lane 7 after site-specific cleavage with PreS cissi on protease and rel ease of the untagg ed protein (A). Different assay conditions were tested to study the effect of buffer sy stems and pH dependency (B,C), the use of organi c solve nts (D), DTT (E) and NaCl (F) concentration on POP enzyme activ ity. For calculation of POP activ ity the slope in the li near range between 5 and 35 mi n of kinetic measurements were used. With the optim ized conditionsZ-Gly-Pro-amino-coumarin concentrations between 0.766 µM and 300 µM were tested in a kinetic measurement and a con centration dependent increase in sig nal was observed. Above 150 µM substrate concentration no further increase in sig nal was measured due to preci pitation of the substra te (G). Al l data are shown as mean of three biologi cal experim ents and error is shown as ±SEM.
(1 picture or pasted object on this page, not shown here)

POP [5] = system: POP; parameters: method as in 3 sources, ref Hellinger et al., 2015a ||| ref Tarrago et al., 2007; Tarragó et al., 2008; Cahlíková et al., 2015 ||| ref Retzl et al., 2020; conditions: cited from earlier work; for POP inhibition (in words): alkaloids and flavonoids, ref Tarrago et al., 2007, Tarragó et al., 2008, Cahlíková et al., 2015
Method: Previous phytochemical studies identified natural products as inhibitors for POP such as small molecule entities and natural peptides. […] A sequence logo was prepared to compare the amino acid positions for conserved residues or to identify variable positions (Figure 7C).

Compound: CC[C@H](C)[C@@H]1NC(=O)[C@H](C)NC(=O)[C@H](C)NC(=O)[C@H](CO)NC(=O)[C@H]([C@@H](C)CC)NC(=O)[C@@H]2CSSC[C@@H]3NC(=O)[C@H](C(C)C)NC(=O)[C@H](CCCCN)NC(=O)[C@H](CC(N)=O)NC(=O)[C@H](CCCCN)NC(=O)[C@@H]4CSSC[C@H](NC(=O)[C@H](CO)NC(=O)[C@H](CCC(=O)O)NC(=O)CNC(=O)[C@H](CSSC[C@H](NC(=O)CNC1=O)C(=O)N[C@@H](CO)C(=O)N4)NC(=O)[C@@H]1CCCN1C(=O)[C@H]([C@@H](C)CC)NC(=O)[C@H](C(C)C)NC(=O)CNC(=O)[C@H](CC(=O)O)NC(=O)[C@H](CCCNC(=N)N)NC(=O)[C@H](Cc1ccc(O)cc1)NC3=O)C(=O)N[C@@H](C(C)C)C(=O)N[C@@H](Cc1ccccc1)C(=O)N[C@@H]([C@@H](C)CC)C(=O)N1CCC[C@H]1C(=O)N2 [alca 1] (cyclo(AAIGCSCKNKVCYRDGVIPCGESCVFIPCIS); disulfide 5-20, 7-24, 12-29)
- IC50 (human POP [1]): 8.5 ± 5.9 µM
- Hill slope (human POP [1]; sigmoidal inhibition curves of isolated peptides, four parameter non-linear regression, mean ± standard deviation, three or five biological experiments, respectively (alca 1, alca 2)): −1.2 ± 0.1

Compound: O=C(CO)[C@@H]1CCCN1C(=O)[C@@H]1CCCN1C(=O)NCc1ccccc1 [JTP-4819]
- clinical outcome (in words) (POP [2]): failed to succeed or provided ambiguous outcomes in their clinical phase

Compound: CC[C@H](C)[C@@H]1NC(=O)[C@@H]2CSSC[C@@H]3NC(=O)[C@H](C(C)C)NC(=O)[C@H](CCCCN)NC(=O)[C@H](CC(N)=O)NC(=O)[C@H](CO)NC(=O)[C@@H]4CSSC[C@H](NC(=O)[C@H](CO)NC(=O)[C@H](CCC(=O)O)NC(=O)CNC(=O)[C@H](CSSC[C@H](NC(=O)CNC(=O)[C@H](CC(C)C)NC(=O)[C@H](C(C)C)NC(=O)CNC(=O)[C@H](CO)NC1=O)C(=O)N[C@@H](CO)C(=O)N4)NC(=O)[C@@H]1CCCN1C(=O)[C@H]([C@@H](C)CC)NC(=O)CNC(=O)[C@H](CC(N)=O)NC(=O)[C@H](CCCNC(=N)N)NC(=O)[C@H](Cc1ccc(O)cc1)NC3=O)C(=O)N[C@@H](C(C)C)C(=O)N[C@@H](Cc1ccccc1)C(=O)N[C@@H]([C@@H](C)CC)C(=O)N1CCC[C@H]1C(=O)N2 [alca 2] (cyclo(CGESCVFIPCISGVLGCSCSNKVCYRNGIP); disulfide 1-17, 5-19, 10-24)
- IC50 (human POP [1]): 4.4 ± 0.7 µM

Compound: Cc1cc(=O)oc2cc(NC(=O)[C@@H]3CCCN3C(=O)CNC(=O)OCc3ccccc3)ccc12 [Z-Gly-Pro-amino-coumarin] (Cbz-Gly-Pro-{AMC})
- K m (human POP [3]): 42.4 µM
- Vmax (human POP [3]): 0.00015 µmol/min
- substrate concentration above which precipitation of the substrate occurs [4]: Above 150 µM

Compound: COc1ccc2cc3[n+](cc2c1OC)CCc1cc2c(cc1-3)OCO2 [berberine]
- POP inhibition (in words) (POP [5]): inhibit POP activity

Compound: C[N+]1(C)[C@H]2Cc3cc4c(cc3[C@@H]1Cc1cc3c(cc12)COC3)OCO4 [californidine]
- POP inhibition (in words) (POP [5]): inhibit POP activity

Compound: kalata B1: cyclotide, amongst others in V. tricolor L., Moebius type (cyclo(GLPVCGETCVGGTCNTPGCTCSWPVCTRN); disulfide 14-26, 5-19, 9-21; UniProt P56254 89-117, looked up)
- IC50 (POP [5]; POP, ref Hellinger et al., 2015a, read-out: half maximal inhibitory concentration (IC50)): 5.6 µM

Compound: O=c1cc(-c2ccccc2)oc2cc(O)c(O)c(O)c12 [balcalein]
- POP inhibition (in words) (POP [5]): inhibit POP activity
